Reference: PMC4980083 (JCI insight, 2016)
Values joined by “and” are separate entries in the source; they are usually repeats but may differ in a detail not shown here. Equal values may be shown once.

Assays:
[1] = target: T1, recombinant full-length AR (Homo sapiens, UniProt P10275); test: Cell-free binding to recombinant full-length AR; conditions: 16 hours at room temperature
T1 sequence (P10275 1-920): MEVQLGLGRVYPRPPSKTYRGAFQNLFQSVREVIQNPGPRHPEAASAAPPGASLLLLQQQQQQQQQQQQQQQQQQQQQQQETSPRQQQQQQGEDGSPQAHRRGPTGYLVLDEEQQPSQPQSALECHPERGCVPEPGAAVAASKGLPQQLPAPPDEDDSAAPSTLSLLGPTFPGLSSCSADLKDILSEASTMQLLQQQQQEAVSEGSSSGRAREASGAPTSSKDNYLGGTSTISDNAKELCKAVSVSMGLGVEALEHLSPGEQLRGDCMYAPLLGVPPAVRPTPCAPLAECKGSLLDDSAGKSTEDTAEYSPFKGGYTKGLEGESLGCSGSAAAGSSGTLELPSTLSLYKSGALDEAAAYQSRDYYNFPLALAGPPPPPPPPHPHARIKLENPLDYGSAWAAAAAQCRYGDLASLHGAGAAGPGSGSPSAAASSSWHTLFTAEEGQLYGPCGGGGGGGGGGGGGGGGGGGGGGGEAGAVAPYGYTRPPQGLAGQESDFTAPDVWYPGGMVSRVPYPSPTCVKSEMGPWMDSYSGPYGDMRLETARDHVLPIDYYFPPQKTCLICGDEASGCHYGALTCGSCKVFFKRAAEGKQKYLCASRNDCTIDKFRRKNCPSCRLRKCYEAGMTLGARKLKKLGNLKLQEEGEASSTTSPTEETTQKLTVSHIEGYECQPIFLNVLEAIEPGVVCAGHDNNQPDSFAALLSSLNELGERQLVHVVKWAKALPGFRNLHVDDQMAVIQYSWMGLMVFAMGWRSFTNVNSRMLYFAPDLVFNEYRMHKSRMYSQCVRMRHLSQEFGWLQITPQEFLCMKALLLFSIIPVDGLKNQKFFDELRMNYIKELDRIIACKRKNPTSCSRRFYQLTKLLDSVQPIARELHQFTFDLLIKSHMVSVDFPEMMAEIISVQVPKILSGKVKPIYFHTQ

endogenous AR = test: Binding to endogenous AR in LNCaP95 cells; type: cell-based, human; conditions: 16 hours
[2] = In vivo biodistribution in mice bearing LNCaP95 and PC3 xenografts; set-up: species or system male castrated NOD/SCID mice
[3] = Biodistribution with blocking by excess cold EPI-002; type: in vivo, male castrated NOD/SCID mice; conditions: excess cold EPI-002 50 mg/kg body weight; 1 hour
[4] = Micro-SPECT/CT imaging of mice bearing LNCaP95 and PC3 xenografts; type: in vivo, male castrated NOD/SCID mice

binding to recombinant full-length AR [1]: binds to recombinant full-length AR
Bladder uptake ([2]; 0 h after injection): 0.79 ± 0.49 %ID/g
Blood uptake ([2]; 0 h after injection): 12.57 ± 2.03 %ID/g
Bone uptake ([2]; 0 h after injection): 1.09 ± 0.75 %ID/g
Brain uptake ([2]; 0 h after injection): 1.29 ± 0.55 %ID/g
Heart uptake ([2]; 0 h after injection): 7.62 ± 1.86 %ID/g
Kidney uptake ([2]; 0 h after injection): 5.57 ± 2.37 %ID/g
Large intestine uptake ([2]; 0 h after injection): 0.70 ± 0.42 %ID/g
Liver uptake ([2]; 0 h after injection): 5.03 ± 3.29 %ID/g
Lung uptake ([2]; 0 h after injection): 5.19 ± 1.59 %ID/g
Muscle uptake ([2]; 0 h after injection): 1.60 ± 1.89 %ID/g
Negative tumor (PC3) uptake ([2]; 0 h after injection): 0.19 ± 0.06 %ID/g
Positive tumor (LNCaP95) uptake ([2]; 0 h after injection): 0.17 ± 0.06 %ID/g
Ratio LNCaP95/PC3 ([2]; 0 h after injection): 0.9
Ratio LNCaP95/blood ([2]; 0 h after injection): 0.01
Ratio LNCaP95/kidney ([2]; 0 h after injection): 0.03
Ratio LNCaP95/liver ([2]; 0 h after injection): 0.04
Ratio LNCaP95/muscle ([2]; 0 h after injection): 0.22
Small intestine uptake ([2]; 0 h after injection): 2.44 ± 1.05 %ID/g
Spleen uptake ([2]; 0 h after injection): 1.15 ± 1.04 %ID/g
Stomach uptake ([2]; 0 h after injection): 1.80 ± 1.60 %ID/g
Bladder uptake ([2]; 1 h after injection): 1.47 ± 0.65 %ID/g
Blood uptake ([2]; 1 h after injection): 0.74 ± 0.30 %ID/g
Bone uptake ([2]; 1 h after injection): 1.03 ± 0.31 %ID/g
Brain uptake ([2]; 1 h after injection): 1.68 ± 0.67 %ID/g
Gallbladder uptake ([2]; 1 h after injection): 10.09 ± 6.60 %ID/g
Heart uptake ([2]; 1 h after injection): 2.25 ± 0.50 %ID/g
Kidney uptake ([2]; 1 h after injection): 3.07 ± 0.90 %ID/g
Large intestine uptake ([2]; 1 h after injection): 1.22 ± 0.34 %ID/g
Liver uptake ([2]; 1 h after injection): 7.76 ± 0.95 %ID/g
Lung uptake ([2]; 1 h after injection): 2.40 ± 1.01 %ID/g
Muscle uptake ([2]; 1 h after injection): 1.34 ± 0.40 %ID/g
Ratio LNCaP95/PC3 ([2]; 1 h after injection): 3.2
Ratio LNCaP95/blood ([2]; 1 h after injection): 3.58 ± 0.66 and 3.58
Ratio LNCaP95/kidney ([2]; 1 h after injection): 0.71
Ratio LNCaP95/liver ([2]; 1 h after injection): 0.29
Ratio LNCaP95/muscle ([2]; 1 h after injection): 1.72
Small intestine uptake ([2]; 1 h after injection): 7.43 ± 5.25 %ID/g
Spleen uptake ([2]; 1 h after injection): 0.96 ± 0.23 %ID/g
Stomach uptake ([2]; 1 h after injection): 1.73 ± 0.69 %ID/g
Bladder uptake ([2]; 2 h after injection): 1.13 ± 0.55 %ID/g
Blood uptake ([2]; 2 h after injection): 0.31 ± 0.08 %ID/g
Bone uptake ([2]; 2 h after injection): 0.51 ± 0.11 %ID/g
Brain uptake ([2]; 2 h after injection): 0.83 ± 0.21 %ID/g
Gallbladder uptake ([2]; 2 h after injection): 2.12 ± 3.60 %ID/g
Heart uptake ([2]; 2 h after injection): 1.04 ± 0.22 %ID/g
Kidney uptake ([2]; 2 h after injection): 1.43 ± 0.58 %ID/g
Large intestine uptake ([2]; 2 h after injection): 1.90 ± 2.02 %ID/g
Liver uptake ([2]; 2 h after injection): 4.81 ± 1.13 %ID/g
Lung uptake ([2]; 2 h after injection): 0.78 ± 0.19 %ID/g
Muscle uptake ([2]; 2 h after injection): 0.49 ± 0.18 %ID/g
Negative tumor (PC3) uptake ([2]; 2 h after injection): 0.35 ± 0.14 %ID/g
Positive tumor (LNCaP95) uptake ([2]; 2 h after injection): 1.13 ± 0.16 %ID/g
Ratio LNCaP95/PC3 ([2]; 2 h after injection): 3.3
Ratio LNCaP95/blood ([2]; 2 h after injection): 3.74
Ratio LNCaP95/kidney ([2]; 2 h after injection): 0.96
Ratio LNCaP95/liver ([2]; 2 h after injection): 0.24
Ratio LNCaP95/muscle ([2]; 2 h after injection): 2.51
Small intestine uptake ([2]; 2 h after injection): 6.29 ± 3.72 %ID/g
Spleen uptake ([2]; 2 h after injection): 0.71 ± 0.34 %ID/g
Stomach uptake ([2]; 2 h after injection): 0.68 ± 0.31 %ID/g
Bladder uptake ([2]; 4 h after injection): 0.52 ± 0.17 %ID/g
Blood uptake ([2]; 4 h after injection): 0.25 ± 0.07 %ID/g
Bone uptake ([2]; 4 h after injection): 0.39 ± 0.13 %ID/g
Brain uptake ([2]; 4 h after injection): 0.55 ± 0.18 %ID/g
Gallbladder uptake ([2]; 4 h after injection): 0.35 ± 0.03 %ID/g
Heart uptake ([2]; 4 h after injection): 0.88 ± 0.18 %ID/g
Kidney uptake ([2]; 4 h after injection): 1.05 ± 0.11 %ID/g
Large intestine uptake ([2]; 4 h after injection): 66 %ID/g and 66.53 ± 34.05 %ID/g
Liver uptake ([2]; 4 h after injection): 4.30 ± 0.68 %ID/g
Lung uptake ([2]; 4 h after injection): 0.75 ± 0.24 %ID/g
Muscle uptake ([2]; 4 h after injection): 0.45 ± 0.13 %ID/g
Negative tumor (PC3) uptake ([2]; 4 h after injection): 0.50 ± 0.17 %ID/g
Positive tumor (LNCaP95) uptake ([2]; 4 h after injection): 1.04 ± 0.14 %ID/g
Ratio LNCaP95/PC3 ([2]; 4 h after injection): 2.1
Ratio LNCaP95/blood ([2]; 4 h after injection): 4.38
Ratio LNCaP95/kidney ([2]; 4 h after injection): 1.00
Ratio LNCaP95/liver ([2]; 4 h after injection): 0.25
Ratio LNCaP95/muscle ([2]; 4 h after injection): 2.57
Small intestine uptake ([2]; 4 h after injection): 6.25 ± 2.18 %ID/g
Spleen uptake ([2]; 4 h after injection): 0.55 ± 0.24 %ID/g
Stomach uptake ([2]; 4 h after injection): 0.29 ± 0.19 %ID/g
Bladder uptake ([2]; 6 h after injection): 0.39 ± 0.21 %ID/g
Blood uptake ([2]; 6 h after injection): 0.17 ± 0.03 %ID/g
Bone uptake ([2]; 6 h after injection): 0.21 ± 0.08 %ID/g
Brain uptake ([2]; 6 h after injection): 0.39 ± 0.12 %ID/g
Gallbladder uptake ([2]; 6 h after injection): 9.64 ± 16.02 %ID/g
Heart uptake ([2]; 6 h after injection): 0.51 ± 0.13 %ID/g
Kidney uptake ([2]; 6 h after injection): 0.65 ± 0.24 %ID/g
Large intestine uptake ([2]; 6 h after injection): 47.42 ± 7.58 %ID/g
Liver uptake ([2]; 6 h after injection): 2.92 ± 0.94 %ID/g
Lung uptake ([2]; 6 h after injection): 0.50 ± 0.25 %ID/g
Muscle uptake ([2]; 6 h after injection): 0.24 ±0.09 %ID/g
Negative tumor (PC3) uptake ([2]; 6 h after injection): 0.49 ± 0.01 %ID/g
Positive tumor (LNCaP95) uptake ([2]; 6 h after injection): 0.52 ± 0.10 %ID/g
Ratio LNCaP95/PC3 ([2]; 6 h after injection): 1.1
Ratio LNCaP95/blood ([2]; 6 h after injection): 3.12
Ratio LNCaP95/kidney ([2]; 6 h after injection): 0.85
Ratio LNCaP95/liver ([2]; 6 h after injection): 0.21
Ratio LNCaP95/muscle ([2]; 6 h after injection): 2.56
Small intestine uptake ([2]; 6 h after injection): 2.37 ± 1.43 %ID/g
Spleen uptake ([2]; 6 h after injection): 0.30 ± 0.18 %ID/g
Stomach uptake ([2]; 6 h after injection): 0.19 ± 0.08 %ID/g
Bladder uptake ([2]; 12 h after injection): 0.09 ± 0.04 %ID/g
Blood uptake ([2]; 12 h after injection): 0.07 ± 0.04 %ID/g
Bone uptake ([2]; 12 h after injection): 0.07 ± 0.05 %ID/g
Brain uptake ([2]; 12 h after injection): 0.10 ± 0.05 %ID/g
Gallbladder uptake ([2]; 12 h after injection): 3.12 ± 0.81 %ID/g
Heart uptake ([2]; 12 h after injection): 0.17 ± 0.10 %ID/g
Kidney uptake ([2]; 12 h after injection): 0.16 ± 0.08 %ID/g
Large intestine uptake ([2]; 12 h after injection): 27.02 ± 14.89 %ID/g
Liver uptake ([2]; 12 h after injection): 1.06 ± 0.48 %ID/g
Lung uptake ([2]; 12 h after injection): 0.16 ± 0.08 %ID/g
Muscle uptake ([2]; 12 h after injection): 0.06 ± 0.03 %ID/g
Negative tumor (PC3) uptake ([2]; 12 h after injection): 0.13 ± 0.13 %ID/g
Positive tumor (LNCaP95) uptake ([2]; 12 h after injection): 0.15 ± 0.08 %ID/g
Ratio LNCaP95/PC3 ([2]; 12 h after injection): 1.2
Ratio LNCaP95/blood ([2]; 12 h after injection): 2.22
Ratio LNCaP95/kidney ([2]; 12 h after injection): 0.92
Ratio LNCaP95/liver ([2]; 12 h after injection): 0.14
Ratio LNCaP95/muscle ([2]; 12 h after injection): 2.98
Small intestine uptake ([2]; 12 h after injection): 2.14 ± 1.49 %ID/g
Spleen uptake ([2]; 12 h after injection): 0.07 ± 0.03 %ID/g
Stomach uptake ([2]; 12 h after injection): 1.78 ± 1.27 %ID/g
LNCaP95 tumor uptake (SPECT) ([4]; 2 hours after injection): 1.09% ± 0.41%
thyroid uptake ([4]; blocking with EPI-002): 2.32% ± 0.33%
thyroid uptake ([4]; unblocked): approximately 2.31% ± 0.59%
Substance: [^123I]15-iodoEPI002 [^123I-EPI-002]
binding to endogenous AR in LNCaP95 cells (endogenous AR): binds covalently and specifically to AR
decrease in ^123I-EPI-002 accumulation in the LNCaP95 xenograft by blocking [3]: 74%
